From patent EP0386920A2, “2-Hydroxy-3-thienyloxypropylamino derivatives” (IMPERIAL CHEMICAL INDUSTRIES PLC, priority 1989, dated 1990)

Columns and labels:
BAT mitochondria = test: test (a): GDP binding in brown adipose tissue (BAT) mitochondria of cold-adapted rats as a measure of thermogenic activation; format: in vivo; details: Rattus norvegicus, sc, 1 h, sub-cutaneous (s.c), BAT removed one hour after dosing, relative to isoprenaline 1 mg/kg, read-out: ED₅₀ (dose necessary to produce 50% of the isoprenaline effect on GDP binding)
Rats [1] = test: test (c): metabolic rate (oxygen consumption) in cold-adapted rats; format: in vivo; details: at 1mgkg⁻¹ p.o., closed-circuit oxygen consumption apparatus
Rats [2] = test: test (b): heart rate in rats adapted to a thermoneutral environment (D500 dose and selectivity index)

COC(=O)COc1ccc(CCNCC(O)COc2ccsc2)cc1 (racemic) [Example 1, Methyl 4-[2-(2-hydroxy-3-(3-thienyloxy)propylamino)ethyl]phenoxyacetate]
ED50 (BAT mitochondria): 0.2 mg/kg | increase in metabolic rate (Rats [1]): 5.2 ml O₂ min⁻¹Kg ^0.75 | SI (selectivity index, ratio of D₅₀₀ to ED₅₀ in test (a)) (Rats [2]; s.c): > 100

CC(C)NCC(O)c1ccc(O)c(O)c1 (stereo not shown) [isoprenaline, reference compound]
SI (selectivity index, ratio of D₅₀₀ to ED₅₀ in test (a)) (Rats [2]; route not stated): 0.06
